Experimental data taken from patent US8227616B2, “Cyanopyridine antibacterial agents and methods of use thereof” (Wisconsin Alumni Research Foundation, priority 2006, dated 2012).
Converted amounts (≈) assume the structure as drawn. Read-outs that look alike come from different tables or passages of the source.

Columns and labels:
S. aureus ATCC 10390 [1] = assay: Agar overlay TTC assay; assay type: cell-based, Staphylococcus aureus; conditions: macroarray copies, 15 mL agar
From the text: To take advantage of the spatially-addressed nature of the macroarray format, an agar overlay assay was employed that utilizes TTC (triphenyl tetrazolium chloride) as a visualization agent (FIG. 2[…].; Lu, A. T.; Solas, D. W.; Gore, […].; Coffin, […].; Wang, […].; Look, G. C.; Campbell, […]. Antimicrob. Agents Chemother. 1998, 1447-1453. Unfortunately, during macroarray synthesis the planarity of the support is not fully maintained, and small wrinkles develop in this particular assay. This problem was solved by using an adaptation of the common Western Blot technique to copy the macroarray members from the support to fresh wrinkle-free sheets while maintaining the spatially-addressed nature. This transfer can be completed in 90 seconds and four copies can be made at a time, however to date, it is applicable only for smaller macroarrays (6 cm×6 cm, 16 spots). The full macroarray was easily divided into these dimensions. The copies allowed for replicates to be made, and the original, which cannot be used in the assay, is used to validate the compounds by LCMS. As an added feature, the sensitivity of the assay was tuned by simply changing the amount of agar applied to the array. The copies generated in the assay can also be easily used to screened against multiple organisms. […] This assay format also took advantage of the spatially addressed nature of the arrays (FIG. 2C). […]

[2] = system: Methicillin-resistant S. aureus ATCC 33591 (MRSA); assay: MIC determination with authentic compounds resynthesized in solution; assay type: cell-based; conditions: Staphylococcus aureus; Table 3; authentic sample, only trans isomers of chalcones; error reflects step size in the serial dilutions
Protocol: (§1) For estimated MIC determination, DMSO was added to the dried compound residue obtained from a single spot to afford ca. 100 μL of a 2 mM stock solution. Aliquots (5 μL) of these solutions were added to a 96-well plate, followed by 195 μL of diluted S. aureus 10390 (10^6 CFUs/mL) to yield ca. 50 μM final concentrations. The plates were swirled for 1 h to ensure compound dissolution, incubated for 12 h at 37° C., and the absorbance at 595 nm was recorded using a plate reader. […] Actual MIC values were determined for lead compounds resynthesized in solution using an analogous procedure with solutions of known concentration (see).
(§2) Dose response growth inhibition curves were determined for each active compound (resynthesized in solution) against S. aureus 10390 (SA) and methicillin-resistant S. aureus 33591 (MRSA). […] MIC assays were performed in quadruplicate.

S. aureus ATCC 10390 [3] = assay: as above; assay type: cell-based, Staphylococcus aureus; conditions: for MIC: Staphylococcus aureus, ATCC10390
Protocol: as §1, §2

MIC [2]: 3 ± 0.5 µM (≈ 1.08 µg/mL)
MIC (S. aureus ATCC 10390 [3]; Table 2, authentic sample synthesized according to standard techniques, read-out: observed MIC): 3.3 ± 0.3 µM (≈ 1.19 µg/mL)
MIC (S. aureus ATCC 10390 [3]; Table 3, authentic sample, only trans isomers of chalcones, error reflects step size in the serial dilutions, read-out: S. aureus MIC): 3.5 ± 0.5 µM (≈ 1.26 µg/mL)
Compound: O=C(/C=C/c1cc(C(F)(F)F)cc(C(F)(F)F)c1)c1cccc(O)c1 [Compound 4Bv, 3′-hydroxy-3,5-bis(trifluoromethyl)chalcone]
relative activity in agar overlay TTC assay (S. aureus ATCC 10390 [1]): most active
MIC against S. aureus 10390 (S. aureus ATCC 10390 [3]; values quoted in killing-curve protocol, unit not given): ca. 3.5
